# Laboratory results published in patent US4068070A, “α-Cyanoamine compounds and a process for producing the same” (Fuji Chemical Industry Co., Ltd., priority 1974, dated 1978).
# Assays:
# Assay type in all cases: in vivo, mongrel adult dogs
# [1] = tested on: arterial mean blood pressure; assay: Effects on arterial mean blood pressure
# Procedure: (§1) All experiments were made on male and female thoractomized mongrel adult dogs weighing about 10 kg. under anesthesia with pentobarbital sodium. Compounds A, D, E and F were suspended in 0.2% CMC solution, Compound B dissolved in hydrochloric acid solution (pH 6), and Compound C and active placebo being dissolved in physiological saline solution. Animals were administered the drug intravenously on brachiuma with either test compound or active placebo.
# (§2) Arterial blood pressure was measured by pressure transducer (Nippon Koden MPU-0.5) connected with the cannula inserted from exposed carotid artery into aorta. Aortic blood flow was determined by means of electromagnetic flow meter (Nippon Koden MF-5) mounted at the origin of the aorta. Coronary sinus out flow and coronary sinus oxygen tension were assessed by means of electromagnetic flow meter (Nippon Koden MF-5) and P02 macro electrode (Beokmann Moder 160-C), respectively using Morawitz cannulization technique. Heart rate was measured by cardiotachometer (Nippon Koden RT-2) synchronized with systolic blood pressure of aorta.
# aortic blood flow = assay: Effects on aortic blood flow
# Procedure: as §1, §2
# coronary sinus out flow = assay: Effects on coronary sinus out flow
# Procedure: as §1, §2
# [2] = tested on: coronary sinus oxygen tension; assay: Effects on coronary sinus oxygen tension
# Procedure: as §1, §2
# heart rate = assay: Effects on heart rate
# Procedure: as §1, §2
smiles,measurement,setting,value
COc1ccc(C(C#N)N2CCN(CC(=O)N3CCCC3)CC2)cc1OC (centres unmarked) [Compound C],"Changes (%) of basal values, arterial mean blood pressure","[1]; 2.0 mg/kg i.v., 1 min",+0.8%
same,"Changes (%) of basal values, arterial mean blood pressure","[1]; 2.0 mg/kg i.v., 5 min",0%
same,"Changes (%) of basal values, arterial mean blood pressure","[1]; 2.0 mg/kg i.v., 10 min",0%
same,"Changes (%) of basal values, arterial mean blood pressure","[1]; 2.0 mg/kg i.v., 20 min",0%
same,"Changes (%) of basal values, arterial mean blood pressure","[1]; 2.0 mg/kg i.v., 30 min",0%
same,"Changes (%) of basal values, arterial mean blood pressure","[1]; 2.0 mg/kg i.v., 40 min",0%
same,"Changes (%) of basal values, arterial mean blood pressure","[1]; 2.0 mg/kg i.v., imm.",-4.2%
same,"Changes (%) of basal values, arterial mean blood pressure","[1]; 6.0 mg/kg i.v., 1 min",-3.9%
same,"Changes (%) of basal values, arterial mean blood pressure","[1]; 6.0 mg/kg i.v., 5 min",-1.6%
same,"Changes (%) of basal values, arterial mean blood pressure","[1]; 6.0 mg/kg i.v., 10 min",-0.7%
same,"Changes (%) of basal values, arterial mean blood pressure","[1]; 6.0 mg/kg i.v., 20 min",-3.6%
same,"Changes (%) of basal values, arterial mean blood pressure","[1]; 6.0 mg/kg i.v., 30 min",-2.5%
same,"Changes (%) of basal values, arterial mean blood pressure","[1]; 6.0 mg/kg i.v., 40 min",-1.3%
same,"Changes (%) of basal values, arterial mean blood pressure","[1]; 6.0 mg/kg i.v., imm.",-12.1%
same,"Changes (%) of basal values, arterial mean blood pressure","[1]; 20.0 mg/kg i.v., 1 min",-17.1%
same,"Changes (%) of basal values, arterial mean blood pressure","[1]; 20.0 mg/kg i.v., 5 min",-18.8%
same,"Changes (%) of basal values, arterial mean blood pressure","[1]; 20.0 mg/kg i.v., 10 min",-22.2%
same,"Changes (%) of basal values, arterial mean blood pressure","[1]; 20.0 mg/kg i.v., 20 min",-27.2%
same,"Changes (%) of basal values, arterial mean blood pressure","[1]; 20.0 mg/kg i.v., 30 min",-28.0%
same,"Changes (%) of basal values, arterial mean blood pressure","[1]; 20.0 mg/kg i.v., 40 min",-26.1%
same,"Changes (%) of basal values, arterial mean blood pressure","[1]; 20.0 mg/kg i.v., imm.",-29.0%
same,Effects on arterial mean blood pressure (in words),"[1]; i.v., anesthetized dogs",hypotensive effects being proportioned to their doses which were of long duration
same,"Changes (%) of basal values, aortic blood flow","aortic blood flow; 2.0 mg/kg i.v., 1 min",+2.3%
same,"Changes (%) of basal values, aortic blood flow","aortic blood flow; 2.0 mg/kg i.v., 5 min",+0.7%
same,"Changes (%) of basal values, aortic blood flow","aortic blood flow; 2.0 mg/kg i.v., 10 min",-1.5%
same,"Changes (%) of basal values, aortic blood flow","aortic blood flow; 2.0 mg/kg i.v., 20 min",-0.3%
same,"Changes (%) of basal values, aortic blood flow","aortic blood flow; 2.0 mg/kg i.v., 30 min",-0.1%
same,"Changes (%) of basal values, aortic blood flow","aortic blood flow; 2.0 mg/kg i.v., 40 min",0%
same,"Changes (%) of basal values, aortic blood flow","aortic blood flow; 2.0 mg/kg i.v., imm.",+1.1%
same,"Changes (%) of basal values, aortic blood flow","aortic blood flow; 6.0 mg/kg i.v., 1 min",+3.4%
same,"Changes (%) of basal values, aortic blood flow","aortic blood flow; 6.0 mg/kg i.v., 5 min",+1.1%
same,"Changes (%) of basal values, aortic blood flow","aortic blood flow; 6.0 mg/kg i.v., 10 min",0%
same,"Changes (%) of basal values, aortic blood flow","aortic blood flow; 6.0 mg/kg i.v., 20 min",-1.0%
same,"Changes (%) of basal values, aortic blood flow","aortic blood flow; 6.0 mg/kg i.v., 30 min",-2.0%
same,"Changes (%) of basal values, aortic blood flow","aortic blood flow; 6.0 mg/kg i.v., 40 min",-1.1%
same,"Changes (%) of basal values, aortic blood flow","aortic blood flow; 6.0 mg/kg i.v., imm.",+8.5%
same,"Changes (%) of basal values, aortic blood flow","aortic blood flow; 20.0 mg/kg i.v., 1 min",+6.2%
same,"Changes (%) of basal values, aortic blood flow","aortic blood flow; 20.0 mg/kg i.v., 5 min",+4.8%
same,"Changes (%) of basal values, aortic blood flow","aortic blood flow; 20.0 mg/kg i.v., 10 min",+1.3%
same,"Changes (%) of basal values, aortic blood flow","aortic blood flow; 20.0 mg/kg i.v., 20 min",-7.1%
same,"Changes (%) of basal values, aortic blood flow","aortic blood flow; 20.0 mg/kg i.v., 30 min",-11.9%
same,"Changes (%) of basal values, aortic blood flow","aortic blood flow; 20.0 mg/kg i.v., 40 min",-8.3%
same,"Changes (%) of basal values, aortic blood flow","aortic blood flow; 20.0 mg/kg i.v., imm.",+15.8%
same,Effects on aortic blood flow (in words),"aortic blood flow; i.v., anesthetized dogs","an increase in blood flow immediately after administration, followed by a decrease in blood flow"
same,"Changes(%) of basal values, coronary sinus out flow","coronary sinus out flow; 2.0 mg/kg i.v., 1 min",+4.7%
same,"Changes(%) of basal values, coronary sinus out flow","coronary sinus out flow; 2.0 mg/kg i.v., 5 min",+4.9%
same,"Changes(%) of basal values, coronary sinus out flow","coronary sinus out flow; 2.0 mg/kg i.v., 10 min",+3.2%
same,"Changes(%) of basal values, coronary sinus out flow","coronary sinus out flow; 2.0 mg/kg i.v., 20 min",+2.1%
same,"Changes(%) of basal values, coronary sinus out flow","coronary sinus out flow; 2.0 mg/kg i.v., 30 min",+1.6%
same,"Changes(%) of basal values, coronary sinus out flow","coronary sinus out flow; 2.0 mg/kg i.v., 40 min",+1.1%
same,"Changes(%) of basal values, coronary sinus out flow","coronary sinus out flow; 2.0 mg/kg i.v., imm.",+17.8%
same,"Changes(%) of basal values, coronary sinus out flow","coronary sinus out flow; 6.0 mg/kg i.v., 1 min",+50.7%
same,"Changes(%) of basal values, coronary sinus out flow","coronary sinus out flow; 6.0 mg/kg i.v., 5 min",+28.6%
same,"Changes(%) of basal values, coronary sinus out flow","coronary sinus out flow; 6.0 mg/kg i.v., 10 min",+19.4%
same,"Changes(%) of basal values, coronary sinus out flow","coronary sinus out flow; 6.0 mg/kg i.v., 20 min",+18.2%
same,"Changes(%) of basal values, coronary sinus out flow","coronary sinus out flow; 6.0 mg/kg i.v., 30 min",+14.3%
same,"Changes(%) of basal values, coronary sinus out flow","coronary sinus out flow; 6.0 mg/kg i.v., 40 min",+7.6%
same,"Changes(%) of basal values, coronary sinus out flow","coronary sinus out flow; 6.0 mg/kg i.v., imm.",+58.2%
same,"Changes(%) of basal values, coronary sinus out flow","coronary sinus out flow; 20.0 mg/kg i.v., 1 min",+103.2%
same,"Changes(%) of basal values, coronary sinus out flow","coronary sinus out flow; 20.0 mg/kg i.v., 5 min",+92.1%
same,"Changes(%) of basal values, coronary sinus out flow","coronary sinus out flow; 20.0 mg/kg i.v., 10 min",+80.8%
same,"Changes(%) of basal values, coronary sinus out flow","coronary sinus out flow; 20.0 mg/kg i.v., 20 min",+56.2%
same,"Changes(%) of basal values, coronary sinus out flow","coronary sinus out flow; 20.0 mg/kg i.v., 30 min",+36.2%
same,"Changes(%) of basal values, coronary sinus out flow","coronary sinus out flow; 20.0 mg/kg i.v., 40 min",+30.0%
same,"Changes(%) of basal values, coronary sinus out flow","coronary sinus out flow; 20.0 mg/kg i.v., imm.",+101.9%
same,Effects on coronary sinus out flow (in words),"coronary sinus out flow; i.v., anesthetized dogs","a marked increasing effect on coronary sinus out flow, which was proportioned to doses thereof and of long duration"
same,"Changes(%) of basal values, coronary sinus oxygen tension","[2]; 2.0 mg/kg i.v., 1 min",+5.4%
same,"Changes(%) of basal values, coronary sinus oxygen tension","[2]; 2.0 mg/kg i.v., 5 min",+2.8%
same,"Changes(%) of basal values, coronary sinus oxygen tension","[2]; 2.0 mg/kg i.v., 10 min",+2.0%
same,"Changes(%) of basal values, coronary sinus oxygen tension","[2]; 2.0 mg/kg i.v., 20 min",+1.1%
same,"Changes(%) of basal values, coronary sinus oxygen tension","[2]; 2.0 mg/kg i.v., 30 min",0%
same,"Changes(%) of basal values, coronary sinus oxygen tension","[2]; 2.0 mg/kg i.v., 40 min",0%
same,"Changes(%) of basal values, coronary sinus oxygen tension","[2]; 2.0 mg/kg i.v., imm.",+12.1%
same,"Changes(%) of basal values, coronary sinus oxygen tension","[2]; 6.0 mg/kg i.v., 1 min",+29.2%
same,"Changes(%) of basal values, coronary sinus oxygen tension","[2]; 6.0 mg/kg i.v., 5 min",+22.3%
same,"Changes(%) of basal values, coronary sinus oxygen tension","[2]; 6.0 mg/kg i.v., 10 min",+19.8%
same,"Changes(%) of basal values, coronary sinus oxygen tension","[2]; 6.0 mg/kg i.v., 20 min",+15.0%
same,"Changes(%) of basal values, coronary sinus oxygen tension","[2]; 6.0 mg/kg i.v., 30 min",+14.3%
same,"Changes(%) of basal values, coronary sinus oxygen tension","[2]; 6.0 mg/kg i.v., 40 min",+12.0%
same,"Changes(%) of basal values, coronary sinus oxygen tension","[2]; 6.0 mg/kg i.v., imm.",+36.9%
same,"Changes(%) of basal values, coronary sinus oxygen tension","[2]; 20.0 mg/kg i.v., 1 min",+96.2%
same,"Changes(%) of basal values, coronary sinus oxygen tension","[2]; 20.0 mg/kg i.v., 5 min",+86.7%
same,"Changes(%) of basal values, coronary sinus oxygen tension","[2]; 20.0 mg/kg i.v., 10 min",+70.4%
same,"Changes(%) of basal values, coronary sinus oxygen tension","[2]; 20.0 mg/kg i.v., 20 min",+63.7%
same,"Changes(%) of basal values, coronary sinus oxygen tension","[2]; 20.0 mg/kg i.v., 30 min",+60.9%
same,"Changes(%) of basal values, coronary sinus oxygen tension","[2]; 20.0 mg/kg i.v., 40 min",+51.5%
same,"Changes(%) of basal values, coronary sinus oxygen tension","[2]; 20.0 mg/kg i.v., imm.",+79.1%
same,Effects on coronary sinus oxygen tension (in words),"[2]; i.v., anesthetized dogs","a significant increase in coronary sinus oxygen tension, effect of which was of long duration"
same,"Changes(%) of basal values, heart rate","heart rate; 2.0 mg/kg i.v., 1 min",+1.1%
same,"Changes(%) of basal values, heart rate","heart rate; 2.0 mg/kg i.v., 5 min",+0.3%
same,"Changes(%) of basal values, heart rate","heart rate; 2.0 mg/kg i.v., 10 min",-0.2%
same,"Changes(%) of basal values, heart rate","heart rate; 2.0 mg/kg i.v., 20 min",0%
same,"Changes(%) of basal values, heart rate","heart rate; 2.0 mg/kg i.v., 30 min",0%
same,"Changes(%) of basal values, heart rate","heart rate; 2.0 mg/kg i.v., 40 min",0%
same,"Changes(%) of basal values, heart rate","heart rate; 2.0 mg/kg i.v., imm.",-2.8%
same,"Changes(%) of basal values, heart rate","heart rate; 6.0 mg/kg i.v., 1 min",+5.1%
same,"Changes(%) of basal values, heart rate","heart rate; 6.0 mg/kg i.v., 5 min",+1.3%
same,"Changes(%) of basal values, heart rate","heart rate; 6.0 mg/kg i.v., 10 min",-0.3%
same,"Changes(%) of basal values, heart rate","heart rate; 6.0 mg/kg i.v., 20 min",-1.0%
same,"Changes(%) of basal values, heart rate","heart rate; 6.0 mg/kg i.v., 30 min",0%
same,"Changes(%) of basal values, heart rate","heart rate; 6.0 mg/kg i.v., 40 min",0%
same,"Changes(%) of basal values, heart rate","heart rate; 6.0 mg/kg i.v., imm.",-5.3%
same,"Changes(%) of basal values, heart rate","heart rate; 20.0 mg/kg i.v., 1 min",+0.8%
same,"Changes(%) of basal values, heart rate","heart rate; 20.0 mg/kg i.v., 5 min",+1.6%
same,"Changes(%) of basal values, heart rate","heart rate; 20.0 mg/kg i.v., 10 min",-1.0%
same,"Changes(%) of basal values, heart rate","heart rate; 20.0 mg/kg i.v., 20 min",-1.4%
same,"Changes(%) of basal values, heart rate","heart rate; 20.0 mg/kg i.v., 30 min",-28%
same,"Changes(%) of basal values, heart rate","heart rate; 20.0 mg/kg i.v., 40 min",-2.0%
same,"Changes(%) of basal values, heart rate","heart rate; 20.0 mg/kg i.v., imm.",-25.6%
same,Effects on heart rate (in words),"heart rate; i.v., anesthetized dogs",a slight negative chronotropic effect
